# From patent publication US20030133958A1, “External agent for the skin and whitening agent” (priority 2000, published 2003)
# Tests used:
# [1] = tested on: B-16 melanoma cells; assay: Test for evaluating melanogenesis-inhibitory function (cell-whitening degree) in cell culture systems using B-16 melanoma cells; format: cell-based; set-up: key to Whitening degree: ++: The whitening degree is higher than that observed when adding 450 μg/mL of vitamin C-magnesium phosphate.; +: The whitening degree is almost identical to that observed when adding 450 μ g/mL of vitamin C-magnesium phosphate.; ±: The whitening degree is not higher than that observed when adding 450 μg/mL of vitamin C-magnesium phosphate, but higher than that of the control.; −: The whitening degree is almost identical to that observed for the control
# Source text: (§1) The B-16 melanoma cell is one having an ability of producing melanin and therefore, the cells naturally grown by cell culture blacken. If a substance capable of inhibiting melanogenesis is present in the cell growth system during the cell growth, the blackening of the cells is inhibited and they relatively whiten. Accordingly, the whitening effect of each candidate substance can be evaluated on the basis of the degree of whiteness observed when adding a test sample relative to the degree of blackness observed for a control. […] To evaluate this cytotoxicity, the cell survival rate observed when adding a test sample to the system is compared with that observed for the control. Thus, the substantial whitening effect can be evaluated on the basis of the results of these cell-whitening test and cytotoxicity test.
# An example of such a method for evaluating the melanogenesis-inhibitory function in a cell culture system using B-16 melanoma cells comprises, for instance, the steps of dispensing 2 ml/well of a culture medium to each well of a 6-well plate, inoculating a desired amount of melanoma cells to the medium, cultivating the cells by allowing the medium to stand at 37° C. and a carbon dioxide concentration of 5%. On the following day, a solution of a test sample is added and mixed with the culture medium to a predetermined concentration and the cell cultivation is continued. After 5 days from the initiation of the cultivation, the culture medium is replaced with fresh one and the solution of the test sample is again added thereto. On the next day, the medium is removed to thus recover the cells, followed by washing them with PBS (phosphate-buffered saline) and the determination of the degree of whiteness to thus evaluate the whitening effect of the test sample. In this connection, the melanogenesis-inhibitory function is evaluated by comparing the results thus obtained with the degree of whiteness observed when the same procedures are repeated using the vitamin C-magnesium phosphate as a known whitening agent instead of the test sample solution (positive control) and that observed when the procedures are repeated without addition of any test sample (control).
# A culture medium was dispensed to wells of a 6-well plate (2 mL/well each), followed by inoculation of a desired amount of B-16 melanoma cells on each well, allowing the wells to stand at 37° C. and 5% CO2 to thus cultivate the cells. On the day subsequent thereto, a sample solution prepared was added to the wells with stirring and the cultivation was continued. The culture medium was replaced with fresh one on the 5th day from the initiation of the cultivation and the sample solution was again added to the wells. On the next day, the culture medium was removed to recover the cells, followed by washing them with PBS (phosphate buffered physiological saline) and then evaluation of the cell-whitening degree In this respect, the melanogenesis-inhibitory function was evaluated by comparing the cell-whitening degree thus obtained with that observed when the same procedures used above were repeated except that vitamin C-magnesium phosphate as a known whitening agent (positive control) was substituted for the sample solution used above and that observed when the same procedures used above were repeated except that any sample was not added (control), according to the following evaluation criteria.
# The evaluation criteria for the cell-whitening degree are as follows: […]
# [2] = tested on: B-16 melanoma cells; assay: Cell-survival rate (cytotoxicity) in B-16 melanoma cell culture; format: cell-based
# Source text: as §1
# The cell-survival rate at each added sample concentration can be determined according to the following formula
# Cell-Survival Rate (%)=(A/B)×100
# Wherein A represents the viable cell count observed for the system to which a sample is added and B represents the number of cells observed for the control system.
# [3] = Solubility (oil / water)
# [4] = concentration 10 ppm, B-16 melanoma cells
# [5] = concentration 15 ppm, B-16 melanoma cells
# [6] = concentration 25 ppm, B-16 melanoma cells
# [7] = concentration 50 ppm, B-16 melanoma cells
# [8] = concentration 100 ppm, B-16 melanoma cells
# [9] = concentration 200 ppm, B-16 melanoma cells
# [10] = concentration 300 ppm, B-16 melanoma cells
# [11] = concentration 400 ppm, B-16 melanoma cells
# [12] = concentration 2 ppm, B-16 melanoma cells
# [13] = concentration 4 ppm, B-16 melanoma cells
# [14] = concentration 6 ppm, B-16 melanoma cells
# [15] = concentration 8 ppm, B-16 melanoma cells
structure (smiles),measurement,setting,value
"O=c1cc(CO)occ1O [Kojic Acid, reference compound]",Whitening degree,[1]; [4],−
same,Whitening degree,[1]; [5],−
same,Whitening degree,[1]; [6],−
same,Whitening degree,[1]; [7],±
same,Whitening degree,[1]; [8],±
same,Whitening degree,[1]; [9],+
same,Whitening degree,[1]; [10],++
same,Whitening degree,[1]; [11],++
same,Cell-Survival Rate,"[2]; mouse, 10 ppm",100%
same,Cell-Survival Rate,"[2]; mouse, 15 ppm",100%
same,Cell-Survival Rate,"[2]; mouse, 25 ppm",100%
same,Cell-Survival Rate,"[2]; mouse, 50 ppm",100%
same,Cell-Survival Rate,"[2]; mouse, 100 ppm",100%
same,Cell-Survival Rate,"[2]; mouse, 200 ppm",93%
same,Cell-Survival Rate,"[2]; mouse, 300 ppm",80%
same,Cell-Survival Rate,"[2]; mouse, 450 ppm",66%
"CC1(C)CC[C@]2(C(=O)O)CC[C@]3(C)C(=CC[C@@H]4[C@@]5(C)C[C@@H](O)[C@H](O)C(C)(C)[C@@H]5CC[C@]43C)[C@@H]2C1 [Purified maslinic acid 2, maslinic acid]",Whitening degree,[1]; [12],±
same,Whitening degree,[1]; [13],+
same,Whitening degree,[1]; [14],++
same,Whitening degree,[1]; [15],++
same,Whitening degree,[1]; [4],++
same,"whitening effect, times that observed for vitamin C-magnesium phosphate","[1]; from Table 1, positive control vitamin C-magnesium phosphate 450 ppm",about 110 times
same,added concentration at which the whitening effect is almost identical to that of the positive control,"[1]; positive control vitamin C-magnesium phosphate 450 ppm, B-16 melanoma cells",4 ppm
same,Cell-Survival Rate,[2]; [12],100%
same,Cell-Survival Rate,[2]; [13],100%
same,Cell-Survival Rate,[2]; [14],100%
same,Cell-Survival Rate,[2]; [15],88%
same,Cell-Survival Rate,[2]; [4],69%
"CC1(C)CC[C@]2(CO)CC[C@]3(C)C(=CC[C@@H]4[C@@]5(C)CC[C@H](O)C(C)(C)[C@@H]5CC[C@]43C)[C@@H]2C1 [Erythrodiol, erythrodiol]",Whitening degree,[1]; [12],±
same,Whitening degree,[1]; [13],±
same,Whitening degree,[1]; [14],±
same,Whitening degree,[1]; [15],±
same,Whitening degree,[1]; [4],±
same,Whitening degree,[1]; [5],±
same,Whitening degree,[1]; [6],+
same,Whitening degree,[1]; [7],+
same,cell-survival rate at the added concentration showing a whitening degree almost identical to vitamin C-magnesium phosphate at 450 ppm,[2]; mouse,99-100%
same,Cell-Survival Rate,"[2]; mouse, 2 ppm",100%
same,Cell-Survival Rate,"[2]; mouse, 4 ppm",100%
same,Cell-Survival Rate,"[2]; mouse, 6 ppm",100%
same,Cell-Survival Rate,"[2]; mouse, 8 ppm",100%
same,Cell-Survival Rate,"[2]; mouse, 10 ppm",100%
same,Cell-Survival Rate,"[2]; mouse, 15 ppm",100%
same,Cell-Survival Rate,"[2]; mouse, 25 ppm",100%
same,Cell-Survival Rate,"[2]; mouse, 50 ppm",97%
same,Cell-Survival Rate,"[2]; mouse, 100 ppm",85%
same,Cell-Survival Rate,"[2]; mouse, 200 ppm",72%
same,"oil-solubility, in words",[3],oil-soluble
"C[C@H]1[C@H](C)CC[C@]2(CO)CC[C@]3(C)C(=CC[C@@H]4[C@@]5(C)CC[C@H](O)C(C)(C)[C@@H]5CC[C@]43C)[C@H]12 [Uvaol, uvaol]",Whitening degree,[1]; [12],−
same,Whitening degree,[1]; [13],−
same,Whitening degree,[1]; [14],−
same,Whitening degree,[1]; [15],±
same,Whitening degree,[1]; [4],+
same,Whitening degree,[1]; [5],+
same,Whitening degree,[1]; [6],+
same,Whitening degree,[1]; [7],+
same,cell-survival rate at the added concentration showing a whitening degree almost identical to vitamin C-magnesium phosphate at 450 ppm,[2]; mouse,99-100%
same,Cell-Survival Rate,"[2]; mouse, 2 ppm",100%
same,Cell-Survival Rate,"[2]; mouse, 4 ppm",100%
same,Cell-Survival Rate,"[2]; mouse, 6 ppm",100%
same,Cell-Survival Rate,"[2]; mouse, 8 ppm",100%
same,Cell-Survival Rate,"[2]; mouse, 10 ppm",100%
same,Cell-Survival Rate,"[2]; mouse, 15 ppm",100%
same,Cell-Survival Rate,"[2]; mouse, 25 ppm",90%
same,Cell-Survival Rate,"[2]; mouse, 50 ppm",82%
same,Cell-Survival Rate,"[2]; mouse, 100 ppm",71%
same,Cell-Survival Rate,"[2]; mouse, 200 ppm",61%
same,"oil-solubility, in words",[3],oil-soluble
"OC[C@H]1O[C@@H](Oc2ccc(O)cc2)[C@H](O)[C@@H](O)[C@@H]1O [Arbutin, reference compound]",Whitening degree,[1]; [4],−
same,Whitening degree,[1]; [5],−
same,Whitening degree,[1]; [6],−
same,Whitening degree,[1]; [7],±
same,Whitening degree,[1]; [8],±
same,Whitening degree,[1]; [9],+
same,Whitening degree,[1]; [10],++
same,Whitening degree,[1]; [11],++
same,Cell-Survival Rate,"[2]; mouse, 10 ppm",100%
same,Cell-Survival Rate,"[2]; mouse, 15 ppm",100%
same,Cell-Survival Rate,"[2]; mouse, 25 ppm",100%
same,Cell-Survival Rate,"[2]; mouse, 50 ppm",86%
same,Cell-Survival Rate,"[2]; mouse, 100 ppm",69%
same,Cell-Survival Rate,"[2]; mouse, 200 ppm",56%
same,Cell-Survival Rate,"[2]; mouse, 300 ppm",41%
same,Cell-Survival Rate,"[2]; mouse, 450 ppm",16%
"C=C(C)[C@@H]1CC[C@]2(C(=O)O)CC[C@]3(C)[C@H](CC[C@@H]4[C@@]5(C)CC[C@H](O)C(C)(C)[C@@H]5CC[C@]43C)[C@@H]12 [Betulinic acid, betulinic acid]",Whitening degree,[1]; [12],−
same,Whitening degree,[1]; [13],±
same,Whitening degree,[1]; [14],±
same,Whitening degree,[1]; [15],±
same,Whitening degree,[1]; [4],+
same,Whitening degree,[1]; [5],+
same,Whitening degree,[1]; [6],+
same,Whitening degree,[1]; [7],+
same,cell-survival rate at the added concentration showing a whitening degree almost identical to vitamin C-magnesium phosphate at 450 ppm,[2]; mouse,99-100%
same,Cell-Survival Rate,"[2]; mouse, 2 ppm",100%
same,Cell-Survival Rate,"[2]; mouse, 4 ppm",100%
same,Cell-Survival Rate,"[2]; mouse, 6 ppm",100%
same,Cell-Survival Rate,"[2]; mouse, 8 ppm",100%
same,Cell-Survival Rate,"[2]; mouse, 10 ppm",99%
same,Cell-Survival Rate,"[2]; mouse, 15 ppm",83%
same,Cell-Survival Rate,"[2]; mouse, 25 ppm",76%
same,Cell-Survival Rate,"[2]; mouse, 50 ppm",69%
same,Cell-Survival Rate,"[2]; mouse, 100 ppm",60%
same,Cell-Survival Rate,"[2]; mouse, 200 ppm",51%
same,"oil-solubility, in words",[3],oil-soluble
CC1(C)CC[C@]2(C(=O)O)CC[C@]3(C)C(=CC[C@@H]4[C@@]5(C)C[C@@H](O)[C@H](O)C(C)(C)[C@@H]5CC[C@]43C)[C@@H]2C1 [maslinic acid],"oil-solubility, in words",[3],oil-soluble
same,"solubility in water, in words",[3],hardly soluble in water
"C=C(C)[C@@H]1CC[C@]2(CO)CC[C@]3(C)[C@H](CC[C@@H]4[C@@]5(C)CC[C@H](O)C(C)(C)[C@@H]5CC[C@]43C)[C@@H]12 [Betulin, betulin]",Whitening degree,[1]; [12],−
same,Whitening degree,[1]; [13],−
same,Whitening degree,[1]; [14],±
same,Whitening degree,[1]; [15],±
same,Whitening degree,[1]; [4],±
same,Whitening degree,[1]; [5],+
same,Whitening degree,[1]; [6],+
same,Whitening degree,[1]; [7],+
same,Cell-Survival Rate,[2]; [12],100%
same,Cell-Survival Rate,[2]; [13],100%
same,Cell-Survival Rate,[2]; [14],100%
same,Cell-Survival Rate,[2]; [15],100%
same,Cell-Survival Rate,[2]; [4],100%
same,Cell-Survival Rate,[2]; [5],100%
same,Cell-Survival Rate,[2]; [6],100%
same,Cell-Survival Rate,[2]; [7],100%
same,"oil-solubility, in words",[3],oil-soluble
